# Experimental data: patent publication US20250195673A1 (priority 2020, published 2025)
# Biological target: human NTSR1 (Homo sapiens, UniProt P30989)
# Sequence (P30989 whole entry): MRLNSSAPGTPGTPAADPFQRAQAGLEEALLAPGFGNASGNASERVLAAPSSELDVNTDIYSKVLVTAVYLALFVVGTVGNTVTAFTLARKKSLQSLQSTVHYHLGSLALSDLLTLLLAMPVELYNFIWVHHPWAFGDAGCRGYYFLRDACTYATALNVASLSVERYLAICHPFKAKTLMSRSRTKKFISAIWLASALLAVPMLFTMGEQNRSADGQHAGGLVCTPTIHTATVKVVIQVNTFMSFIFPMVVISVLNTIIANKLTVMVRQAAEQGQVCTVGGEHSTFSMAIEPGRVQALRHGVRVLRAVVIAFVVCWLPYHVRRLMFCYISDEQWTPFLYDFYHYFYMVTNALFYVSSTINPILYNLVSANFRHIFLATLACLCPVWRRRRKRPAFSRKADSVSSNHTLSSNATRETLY
substance,measurement,value
murine transferrin [mTf],IP1 accumulation,not
